Laboratory results reported in ChEMBL document CHEMBL1133554, “Synthesis, structure-activity relationships, and pharmacological profile of 9-amino-4-oxo-1-phenyl-3,4,6,7-tetrahydro[1,4]diazepino[6, 7,1-hi]indoles: discovery of potent, selective phosphodiesterase type 4 inhibitors” (J Med Chem, 2000).

Key:
Phosphodiesterase 4 [1] = biological target: T1, Phosphodiesterase 4 (Homo sapiens, UniProt P27815+Q08499+Q07343+Q08493); test: Inhibition of phosphodiesterase type 4 isozyme (PDE4) from the U937 human cell line.; type: cell-based; conditions: u-937
Phosphodiesterase 3 = Phosphodiesterase 3 (Homo sapiens, UniProt Q14432+Q13370); test: Inhibition of phosphodiesterase 3 (PDE3) isolated from the dog aorta; type: protein assay, Canis lupus familiaris; conditions: target entry is the homologue from another species
[2] = biological target: Phosphodiesterase, PDE1/PDE5 (Homo sapiens, UniProt O76074+P54750+Q01064+Q14123); test: Inhibition of phosphodiesterase 1/5 isozyme (PDE1/5) mixture isolated from the guinea pig trachea.; parameters: species or system Cavia porcellus; conditions: target entry is the homologue from another species
[3] = In vitro inhibition of TNF-alpha-release from human whole blood; type: functional
[4] = In vivo inhibition of LPS-stimulated TNF-alpha release in Wistar rats at 10 mg/kg oral dose; type: functional; conditions: Rattus norvegicus
[5] = In vitro inhibition of TNF-alpha release from human peripheral blood monocytes; type: functional
Phosphodiesterase 4 [6] = biological target: T1, Phosphodiesterase 4; test: PDE4-related emetic activity in ferrets after intravenous administration at 10 mg/kg; type: functional, organism-based; parameters: dose 10 mg/kg; conditions: Mustela putorius furo, target entry is the homologue from another species
Rattus norvegicus = test: In vivo inhibition of antigen induced eosinophil recruitment in Brown-Norvway Rats at 10 mg/kg peroral dose; type: functional; conditions: route oral
Phosphodiesterase 4 [7] = biological target: T1, Phosphodiesterase 4; test: PDE4-related emetic activity in ferrets after intravenous administration at 40 mg/kg; type: functional, organism-based; parameters: dose 40 mg/kg; conditions: Mustela putorius furo, target entry is the homologue from another species

Row | Structure (SMILES) | IC50 (Phosphodiesterase 4 [1]) [µM] | IC50 (Phosphodiesterase 3) [µM] | IC50 [2] [µM] | IC50 [3] [µM] | inhibition in vivo at 10 mg/kg [4] [%] | IC50 [5] [µM] | R+V (Phosphodiesterase 4 [6]) | inhibition in vivo at 10 mg/kg (Rattus norvegicus) [%] | ED50 (Rattus norvegicus) [mg/kg] | R+V (Phosphodiesterase 4 [7]) | ED50 [4] [mg/kg]
1 | COc1cc2c3c(c1)C(c1ccccc1)=N[C@@H](NC(=O)c1ccncc1)C(=O)N3CC2 | 4.4 | 40.8 | 16.1 | – | – | – | – | – | – | – | –
2 | CC(=O)Nc1cc2c3c(c1)C(c1ccccc1)=N[C@@H](NC(=O)c1cc(Cl)c(N)c(Cl)c1)C(=O)N3CC2 | 0.09 | 4.5 | 3.5 | – | – | – | – | – | – | – | –
3 | Nc1cc2c3c(c1)C(c1ccccc1)=N[C@@H](NC(=O)c1ccncc1N)C(=O)N3CC2 | 0.7 | > 100 | > 100 | 0.398 | -89 | 0.08 | 3.5 90 min | -82 | – | – | –
4 | Cc1cc2nnc(C(=O)N[C@@H]3N=C(c4ccccc4)c4cc(N5CCCC5)cc5c4N(CC5)C3=O)c(C)n2n1 | 0.2 | 22.2 | > 100 | – | – | – | – | – | – | – | –
5 | Nc1ccc(C(=O)N[C@@H]2N=C(c3ccccc3)c3cc(N)cc4c3N(CC4)C2=O)cc1 | 0.69 | 86.8 | 93.2 | 1.52 | -71 | 0.443 | 0 90 min | – | 10.8 | – | –
6 | Cc1cc2c3c(c1)C(c1ccccc1)=N[C@@H](NC(=O)c1cc4ccccc4cn1)C(=O)N3CC2 | – | > 100 | > 100 | – | – | – | – | – | – | – | –
7 | COc1ccc(C2CNC(=O)C2)cc1OC1CCCC1 (stereo not given) [ROLIPRAM] | – | > 100 | – | 0.94 | 94 | 0.083 | – | – | 4.66 | – | –
8 | Cc1cc2c3c(c1)C(c1ccccc1)=N[C@@H](NC(=O)c1cc(Cl)c(N)c(Cl)c1)C(=O)N3CC2 | 0.3 | 10.3 | > 100 | – | – | – | – | -21 | – | – | –
9 | O=C(N[C@@H]1N=C(c2ccccc2)c2cc([N+](=O)[O-])cc3c2N(CC3)C1=O)c1cccnc1 | 10.8 | – | – | – | – | – | – | – | – | – | –
10 | O=C(N[C@@H]1N=C(c2ccccc2)c2cccc3c2N(CC3)C1=O)c1c(Cl)cncc1Cl | 4.7 | > 100 | > 100 | – | – | – | – | – | – | – | –
11 | Nc1cnccc1C(=O)N[C@@H]1N=C(c2ccccc2)c2cccc3c2N(CC3)C1=O | 16.2 | 90 | > 100 | – | – | – | – | – | – | – | –
12 | O=C(N[C@@H]1N=C(c2ccccc2)c2cc([N+](=O)[O-])cc3c2N(CC3)C1=O)c1cc2ccccc2cn1 | > 100 | – | – | – | – | – | – | – | – | – | –
13 | Cc1cc2c3c(c1)C(c1ccccc1)=N[C@@H](NC(=O)c1nnc4cc(C)nn4c1C)C(=O)N3CC2 | 0.7 | > 100 | > 100 | > 30 | – | 5.35 | – | – | 33.9 | – | –
14 | CC(C)(C)OC(=O)Nc1cnccc1C(=O)N[C@@H]1N=C(c2ccccc2)c2cc(N)cc3c2N(CC3)C1=O | – | 58.2 | 67.7 | – | -87 | – | 0 90 min | – | 5.03 | – | –
15 | O=C(N[C@@H]1N=C(c2ccccc2)c2cccc3c2N(CC3)C1=O)c1cc2ccccc2cn1 | 5.5 | > 100 | > 100 | – | – | – | – | – | – | – | –
16 | O=C(N[C@@H]1N=C(c2ccccc2)c2cc(N3CCCC3)cc3c2N(CC3)C1=O)c1ccncc1 | 1.4 | 18 | 34 | – | – | – | – | – | – | – | –
17 | COc1ccccc1C(=O)N[C@@H]1N=C(c2ccccc2)c2cc(C)cc3c2N(CC3)C1=O | 1.3 | 28.8 | 50.6 | – | – | – | – | – | – | – | –
18 | COc1cc2c3c(c1)C(c1ccccc1)=N[C@@H](NC(=O)c1nnc4cc(C)nn4c1C)C(=O)N3CC2 | 2.7 | 46 | 14.1 | – | – | – | – | – | – | – | –

Row | Structure (SMILES) | IC50 (Phosphodiesterase 4 [1]) [µM] | IC50 (Phosphodiesterase 3) [µM] | IC50 [2] [µM] | IC50 [3] [µM] | inhibition in vivo at 10 mg/kg [4] [%] | IC50 [5] [µM] | R+V (Phosphodiesterase 4 [6]) | inhibition in vivo at 10 mg/kg (Rattus norvegicus) [%] | ED50 (Rattus norvegicus) [mg/kg] | R+V (Phosphodiesterase 4 [7]) | ED50 [4] [mg/kg]
19 | O=C(N[C@@H]1N=C(c2ccccc2)c2cccc3c2N(CC3)C1=O)c1ccncc1 | 20.5 | > 100 | > 100 | – | – | – | – | – | – | – | –
20 | Nc1cc2c3c(c1)C(c1ccccc1)=N[C@@H](NC(=O)c1cc4ccccc4cn1)C(=O)N3CC2 | 0.1 | 48.5 | > 100 | 3.37 | -16 | 0.048 | – | -62.9 | – | – | –
21 | Nc1cc2c3c(c1)C(c1ccccc1)=N[C@@H](NC(=O)c1cnc4ccccc4c1)C(=O)N3CC2 | 0.2 | 53.9 | 90.7 | – | – | – | – | – | – | – | –
22 | Nc1cc2c3c(c1)C(c1ccccc1)=N[C@@H](NC(=O)c1cccnc1)C(=O)N3CC2 | 0.27 | > 100 | > 100 | 1.24 | – | 0.34 | – | – | 3.2 | 0 90 min | 2.8
23 | Nc1cc2c3c(c1)C(c1ccccc1)=N[C@@H](NC(=O)c1ccncc1)C(=O)N3CC2 | 0.5 | > 100 | > 100 | 1.09 | -71 | 0.48 | – | – | 1.89 | 0 90 min | –
24 | Cc1cc2c3c(c1)C(c1ccccc1)=N[C@@H](NC(=O)c1c(Cl)cncc1Cl)C(=O)N3CC2 | 1 | 19.5 | 38 | – | – | – | – | – | 63.7 | – | –
25 | CC(C)(C)OC(=O)Nc1cnccc1C(=O)N[C@@H]1N=C(c2ccccc2)c2cccc3c2N(CC3)C1=O | 6.2 | 54.7 | 53.3 | – | – | – | – | – | – | – | –
26 | O=C(N[C@@H]1N=C(c2ccccc2)c2cccc3c2N(CC3)C1=O)c1cccnc1 | 10.5 | > 100 | > 100 | – | – | – | – | – | – | – | –
27 | COc1ccccc1C(=O)N[C@@H]1N=C(c2ccccc2)c2cc(N)cc3c2N(CC3)C1=O | 0.5 | > 100 | 93.2 | 1.06 | – | 0.123 | – | – | – | – | –
28 | COc1ccc([C@]2(C#N)CC[C@@H](C(=O)O)CC2)cc1OC1CCCC1 [CILOMILAST] | – | – | – | 7.3 | – | – | 59.5 90 min | – | – | – | 3
29 | Nc1c(Cl)cc(C(=O)N[C@@H]2N=C(c3ccccc3)c3cc(N4CCCC4)cc4c3N(CC4)C2=O)cc1Cl | 0.08 | 10.6 | 39.2 | – | – | – | – | – | – | – | –
30 | CN(C)c1cc2c3c(c1)C(c1ccccc1)=N[C@@H](NC(=O)c1cc(Cl)c(N)c(Cl)c1)C(=O)N3CC2 | 0.2 | 3.2 | 5.3 | – | – | – | – | – | – | – | –
31 | Cc1cc2nnc(C(=O)N[C@@H]3N=C(c4ccccc4)c4cc(N)cc5c4N(CC5)C3=O)c(C)n2n1 | 0.2 | 48.6 | 72 | 0.75 | – | 0.26 | – | – | 1.8 | – | –
32 | CC(=O)Nc1cc2c3c(c1)C(c1ccccc1)=N[C@@H](NC(=O)c1ccncc1)C(=O)N3CC2 | 0.7 | 70 | 30.1 | – | – | – | – | – | – | – | –
33 | Cc1cc2c3c(c1)C(c1ccccc1)=N[C@@H](NC(=O)c1ccncc1)C(=O)N3CC2 | – | 35.8 | 73.4 | 61 | -25 | 0.99 | 0 90 min | – | 5.06 | – | –
34 | COc1cc2c3c(c1)C(c1ccccc1)=N[C@@H](NC(=O)c1cnc4ccccc4c1)C(=O)N3CC2 | 1.7 | 19.4 | 16.1 | – | – | – | – | – | – | – | –
35 | Nc1cc2c3c(c1)C(c1ccccc1)=N[C@@H](NC(=O)c1cc(Cl)c(N)c(Cl)c1)C(=O)N3CC2 | 0.04 | 51.6 | > 100 | 0.438 | – | 0.011 | – | -61.8 | – | – | –
36 | Nc1cc2c3c(c1)C(c1ccccc1)=N[C@@H](NC(=O)c1c(Cl)cncc1Cl)C(=O)N3CC2 | 0.2 | 80 | > 100 | 0.213 | – | 0.038 | – | – | – | – | –
